Laboratory results reported in the supplement of paper PMC10307832.

Assays:
Assay in all cases: relative viability (nuclei count vs DMSO), 5 days (fraction); higher = more cells survive
GSK-J4 + Luminespib = compound: CCOC(=O)CCNc1cc(N2CCc3ccccc3CC2)nc(-c2ccccn2)n1 [GSK-J4] + CCNC(=O)c1noc(-c2cc(C(C)C)c(O)cc2O)c1-c1ccc(CN2CCOCC2)cc1 [Luminespib] (partner 0.01 µM)
Method in brief: (§1)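 Cells from lung cancer lines were seeded into 1536-well plates and, one day later, dosed by pin tool. Treatments were either a single drug or a fixed dose of an anchor drug with five library-drug doses (not always all listed) in √10 steps. After 5 days, nuclei were stained in a one-step fixation (final 0.05% Triton X-100, 1% formaldehyde, 1 ug/ml Hoechst) and counted on 4× images, and relative viability is the treated-to-vehicle nuclei ratio, as the median of duplicate plates.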

AZ3146 + Phenformin = compound: CN1CCC(CC1)OC2=CC(=C(C=C2)NC3=NC=C4C(=N3)N(C(=O)N4C)C5CCCC5)OC [AZ3146] + N=C(N)NC(=N)NCCc1ccccc1 [Phenformin] (partner 250 µM)
Method in brief: as §1

GSK-J4 + Phenformin = compound: CCOC(=O)CCNc1cc(N2CCc3ccccc3CC2)nc(-c2ccccn2)n1 [GSK-J4] + N=C(N)NC(=N)NCCc1ccccc1 [Phenformin] (partner 250 µM)
Method in brief: as §1

AZ3146 + Luminespib = compound: CN1CCC(CC1)OC2=CC(=C(C=C2)NC3=NC=C4C(=N3)N(C(=O)N4C)C5CCCC5)OC [AZ3146] + CCNC(=O)c1noc(-c2cc(C(C)C)c(O)cc2O)c1-c1ccc(CN2CCOCC2)cc1 [Luminespib] (partner 0.01 µM)
Method in brief: as §1

UMC-11
relative viability (GSK-J4 + Luminespib; first compound 0.5 µM): 0.996
relative viability (GSK-J4 + Luminespib; first compound 5 µM): 1.03
relative viability (GSK-J4 + Luminespib; first compound 15.81 µM): 0.971
relative viability (GSK-J4 + Luminespib; first compound 50 µM): 0.259
relative viability (AZ3146 + Phenformin; first compound 0.08 µM): 0.299
relative viability (AZ3146 + Phenformin; first compound 0.253 µM): 0.311
relative viability (AZ3146 + Phenformin; first compound 0.8 µM): 0.345
relative viability (AZ3146 + Phenformin; first compound 2.53 µM): 0.317
relative viability (AZ3146 + Phenformin; first compound 8 µM): 0.263
relative viability (GSK-J4 + Phenformin; first compound 0.5 µM): 0.276
relative viability (GSK-J4 + Phenformin; first compound 5 µM): 0.241
relative viability (GSK-J4 + Phenformin; first compound 15.81 µM): 0.306
relative viability (GSK-J4 + Phenformin; first compound 50 µM): 0.294
relative viability (AZ3146 + Luminespib; first compound 0.08 µM): 0.959
relative viability (AZ3146 + Luminespib; first compound 0.253 µM): 1.2
relative viability (AZ3146 + Luminespib; first compound 0.8 µM): 1.09
relative viability (AZ3146 + Luminespib; first compound 2.53 µM): 0.86
relative viability (AZ3146 + Luminespib; first compound 8 µM): 0.256
